From ChEMBL document CHEMBL1240307, “A functional genomics approach to the mode of action of apratoxin A” (Nat Chem Biol, 2006)

How the values were obtained:
[1] = system: HT-29; assay: Antitumor activity against human HT-29 cells assessed as upregulation of KCNK10 mRNA expression at 2 nM after 12 hrs relative to control; type: functional
[2] = system: U2OS; assay: Cell cycle arrest in human U2OS cells overexpressing mouse Fgfr1 assessed as accumulation at S phase at 15 nM after 48 hrs by CMV-GFP reporter assay method (reference value: 33%); type: functional
[3] = system: NCI-H226; assay: Cytotoxicity against human NCI-H226 cells by sulforhodamine B assay; type: functional
[4] = system: RXF 393; assay: Cytotoxicity against human RXF393 cells by sulforhodamine B assay; type: functional
[5] = system: HT-29; assay: Antitumor activity against human HT-29 cells assessed as upregulation of KCNK10 mRNA expression at 10 nM after 12 hrs relative to control; type: functional
[6] = system: HT-29; assay: Antitumor activity against human HT-29 cells assessed as upregulation of DDIT4 mRNA expression at 10 nM after 3 hrs relative to control; type: functional
[7] = system: HT-29; assay: Antitumor activity against human HT-29 cells assessed as down-regulation of RAB11B mRNA expression at 2 nM after 6 hrs relative to control; type: functional
[8] = system: HT-29; assay: Antitumor activity against human HT-29 cells assessed as upregulation of HSPA1A mRNA expression at 10 nM after 12 hrs relative to control; type: functional
[9] = system: COLO 205; assay: Cytotoxicity against human COLO205 cells by sulforhodamine B assay; type: functional
[10] = system: HT-29; assay: Antitumor activity against human HT-29 cells assessed as upregulation of HSPA1A mRNA expression at 10 nM after 6 hrs relative to control; type: functional
[11] = Cytotoxicity against resting human CD4+ T cell assessed as cell viability after 3 days by fluorescence detection method; type: cell-based; settings: 72 h
[12] = system: HT-29; assay: Antitumor activity against human HT-29 cells assessed as down-regulation of TAL1 mRNA expression at 10 nM after 6 hrs relative to control; type: functional
[13] = system: T47D; assay: Cytotoxicity against human T47D cells by sulforhodamine B assay; type: functional
[14] = system: HL-60(TB); assay: Cytotoxicity against human HL-60(TB) cells by sulforhodamine B assay; type: functional
[15] = system: U2OS; assay: Cell cycle arrest in human U2OS cells overexpressing mouse Fgfr1 assessed as accumulation at G1 phase at 15 nM after 48 hrs by CMV-GFP reporter assay method (reference value: 58%); type: functional
[16] = system: NCI-H23; assay: Cytotoxicity against human NCI-H23 cells by sulforhodamine B assay; type: functional
[17] = system: SK-MEL-2; assay: Cytotoxicity against human SK-MEL-2 cells by sulforhodamine B assay; type: functional
[18] = system: 786-0; assay: Cytotoxicity against human 786-0 cells by sulforhodamine B assay; type: functional
[19] = system: HT-29; assay: Antitumor activity against human HT-29 cells assessed as down-regulation of GTSE1 mRNA expression at 10 nM after 3 hrs relative to control; type: functional
[20] = system: LOX IMVI; assay: Cytotoxicity against human LOXIMVI cells by sulforhodamine B assay; type: functional
[21] = system: HT-29; assay: Antitumor activity against human HT-29 cells assessed as down-regulation of CDC25A mRNA expression at 10 nM after 3 hrs relative to control; type: functional
[22] = system: SNB-19; assay: Cytotoxicity against human SNB19 cells by sulforhodamine B assay; type: functional
[23] = system: U2OS; assay: Cell cycle arrest in human U2OS cells assessed as accumulation at G1 phase at 50 nM after 48 hrs by FACS analysis (reference value: 49.8%); type: functional
[24] = system: HT-29; assay: Antitumor activity against human HT-29 cells assessed as upregulation of RASSF4 mRNA expression at 2 nM after 12 hrs relative to control; type: functional
[25] = system: HT-29; assay: Antitumor activity against human HT-29 cells assessed as down-regulation of TAL1 mRNA expression at 10 nM after 12 hrs relative to control; type: functional
[26] = system: HT-29; assay: Antitumor activity against human HT-29 cells assessed as down-regulation of CCNE2 mRNA expression at 10 nM after 3 hrs relative to control; type: functional
[27] = system: OVCAR-4; assay: Cytotoxicity against human OVCAR4 cells by sulforhodamine B assay; type: functional
[28] = system: HT-29; assay: Antitumor activity against human HT-29 cells assessed as down-regulation of TAL1 mRNA expression at 10 nM after 3 hrs relative to control; type: functional
[29] = system: Malme-3M; assay: Cytotoxicity against human MALME-3M cells by sulforhodamine B assay; type: functional
[30] = system: HCC 2998; assay: Cytotoxicity against human HCC2998 cells by sulforhodamine B assay; type: functional
[31] = system: U2OS; assay: Antiproliferative activity against human U2OS cells expressing constitutively active Stat3 mutant after 48 hrs by CMV-GFP reporter assay method; type: functional, cell-based
[32] = system: HT-29; assay: Antitumor activity against human HT-29 cells assessed as upregulation of DDIT4 mRNA expression at 10 nM after 12 hrs relative to control; type: functional
[33] = system: U2OS; assay: Cell cycle arrest in human U2OS cells assessed as accumulation at S phase at 50 nM after 24 hrs by FACS analysis (reference value: 37.3%); type: functional
[34] = system: SK-MEL-5; assay: Cytotoxicity against human SK-MEL-5 cells by sulforhodamine B assay; type: functional
[35] = system: HT-29; assay: Antitumor activity against human HT-29 cells assessed as upregulation of RASSF4 mRNA expression at 10 nM after 12 hrs relative to control; type: functional
[36] = system: HT-29; assay: Antitumor activity against human HT-29 cells assessed as upregulation of MGC4504 mRNA expression at 10 nM after 6 hrs relative to control; type: functional
[37] = system: HT-29; assay: Antitumor activity against human HT-29 cells assessed as down-regulation of CCNE2 mRNA expression at 10 nM after 12 hrs relative to control; type: functional
[38] = system: SK-OV-3; assay: Cytotoxicity against human SKOV3 cells by sulforhodamine B assay; type: functional
[39] = system: ACHN; assay: Cytotoxicity against human ACHN cells by sulforhodamine B assay; type: functional
[40] = system: UO-31; assay: Cytotoxicity against human UO31 cells by sulforhodamine B assay; type: functional
[41] = system: HT-29; assay: Antitumor activity against human HT-29 cells assessed as upregulation of HSPA1A mRNA expression at 2 nM after 3 hrs relative to control; type: functional
[42] = system: HT-29; assay: Antitumor activity against human HT-29 cells assessed as down-regulation of GTSE1 mRNA expression at 2 nM after 3 hrs relative to control; type: functional
[43] = system: HT-29; assay: Antitumor activity against human HT-29 cells assessed as down-regulation of RAB11B mRNA expression at 2 nM after 12 hrs relative to control; type: functional
[44] = system: UACC-62; assay: Cytotoxicity against human UACC62 cells by sulforhodamine B assay; type: functional
[45] = system: HT-29; assay: Cytotoxicity against human HT-29 cells by sulforhodamine B assay; type: functional
[46] = system: MOLT-4; assay: Cytotoxicity against human MOLT4 cells by sulforhodamine B assay; type: functional
[47] = system: SW-620; assay: Cytotoxicity against human SW620 cells by sulforhodamine B assay; type: functional
[48] = system: HCT-15; assay: Cytotoxicity against human HCT15 cells by sulforhodamine B assay; type: functional
[49] = system: EKVX; assay: Cytotoxicity against human EKVX cells by sulforhodamine B assay; type: functional
[50] = system: HT-29; assay: Antitumor activity against human HT-29 cells assessed as upregulation of MGC4504 mRNA expression at 2 nM after 3 hrs relative to control; type: functional
[51] = read-out: LC50 (the source's name)

CC[C@H](C)[C@H]1C(=O)N2CCC[C@H]2C(=O)O[C@H](C(C)(C)C)C[C@@H](C)C[C@H](O)[C@H](C)C2=N[C@@H](/C=C(\C)C(=O)N[C@@H](Cc3ccc(OC)cc3)C(=O)N(C)[C@@H](C)C(=O)N1C)CS2 [APRATOXIN A]
fold change (FC) [1]: <=2 | inhibition at 0.015 µM [2]: 28% | GI50 [3]: 1.31 nM | GI50 [4]: 7.12 nM | fold change (FC) [5]: <=2 | fold change (FC) [6]: 4.09 | fold change (FC) [7]: <=2 | fold change (FC) [8]: <=2 | GI50 [9]: 2.71 nM | fold change (FC) [10]: 2.68 | IC50 [11]: 1800 nM | fold change (FC) [12]: <=2 | GI50 [13]: 3.63 nM | GI50 [14]: 0.851 nM | inhibition at 0.015 µM [15]: 58% | GI50 [16]: 8.23 nM | GI50 [17]: > 100 nM | GI50 [18]: 4.52 nM | fold change (FC) [19]: <=2 | GI50 [20]: 2.3 nM | CC50 [20, 51]: 23.2 nM | fold change (FC) [21]: <=2 | GI50 [22]: 7 nM | inhibition at 0.05 µM [23]: 50.2% | fold change (FC) [24]: <=2 | fold change (FC) [25]: <=2 | fold change (FC) [26]: <=2 | GI50 [27]: > 100 nM | fold change (FC) [28]: <=2 | GI50 [29]: 4.77 nM | GI50 [30]: 3.65 nM | IC50 [31]: 50 nM | fold change (FC) [32]: 6.82 | inhibition at 0.05 µM [33]: 22.6% | GI50 [34]: 2.31 nM | fold change (FC) [35]: <=2 | fold change (FC) [36]: 10.46 | fold change (FC) [37]: -2.17 | GI50 [38]: 5.27 nM | GI50 [39]: 2.69 nM | GI50 [40]: 2.95 nM | fold change (FC) [41]: <=2 | fold change (FC) [42]: <=2 | fold change (FC) [43]: <=2 | GI50 [44]: 3.28 nM | GI50 [45]: 1.04 nM | CC50 [45, 51]: 75.2 nM | GI50 [46]: 48 nM | GI50 [47]: 3.16 nM | GI50 [48]: 4.29 nM | GI50 [49]: 7.56 nM | fold change (FC) [50]: <=2
